Reference: patent US10294202B2, “Pyrrolidinones as herbicides” (FMC Corporation, priority 2013, dated 2019)

What was measured:
kochia = assay: Test E preemergence herbicide test; format: in vivo, Kochia scoparia; design: key: 0 = no effect, 100 = complete control
From the text: (§1) Seeds of plant species selected from corn (Zea mays), soybean (Glycine max), velvetleaf (Abutilon theophrasti), lambsquarters (Chenopodium album), wild poinsettia (Euphorbia heterophylla), pigweed, palmer (palmer pigweed, Amaranthus palmeri), waterhemp (common waterhemp, Amaranthus rudis), surinam grass (Brachiaria decumbens), crabgrass, large (large crabgrass, Digitaria sanguinalis), crabgrass, Brazil (Brazilian crabgrass, Digitaria horizontalis), panicum, fall (fall panicum, Panicum dichotomiflorum), foxtail, giant (giant foxtail, Setaria faberii), foxtail, green (green foxtail, Setaria viridis), goosegrass (Eleusine indica), johnsongrass (Sorghum halepense), ragweed (common ragweed, Ambrosia elatior), barnyardgrass (Echinochloa crus-galli), sandbur (southern sandbur, Cenchrus echinatus), arrowleaf […] rhombifolia), ryegrass, Italian (Italian ryegrass, Lolium multiflorum), dayflower, VA (Virginia dayflower, Commelina virginica), field bindweed (Convolvulus arvensis), morningglory (Ipomoea coccinea), nightshade (eastern black nightshade, Solanum ptycanthum), kochia (Kochia scoparia), nutsedge, yellow (yellow nutsedge, Cyperus esculentus), cocklebur (common cocklebur, Xanthium strumarium), smartweed (ladysthumb smartweed, Polygonum Persicaria) and beggarticks (hairy beggarticks, Bidens pilosa), were planted into a silt loam soil and treated preemergence with test chemicals formulated in a non-phytotoxic solvent mixture which included a surfactant. Treated plants and controls were maintained in a greenhouse for 21 days, after which time all species were compared to controls and visually evaluated. Plant response ratings, summarized in Table E, are based on a scale of 0 to 100 where 0 is no effect and 100 is complete control. A dash (-) response means no test result.

nightshade = assay: Test E preemergence herbicide test; format: in vivo, Solanum ptycanthum; design: key: 0 = no effect, 100 = complete control
From the text: as §1

crabgrass, large = assay: Test E preemergence herbicide test; format: in vivo, Digitaria sanguinalis; design: key: 0 = no effect, 100 = complete control
From the text: as §1

surinam grass = assay: Test E preemergence herbicide test; format: in vivo, Brachiaria decumbens; design: key: 0 = no effect, 100 = complete control
From the text: as §1

soybean = assay: Test E preemergence herbicide test; format: in vivo, Glycine max; design: key: 0 = no effect, 100 = complete control
From the text: as §1

field poppy = assay: Test D pre-/postemergence herbicide test; format: in vivo, Papaver rhoeas; conditions: for Plant response rating: Field Poppy, scale 0 to 100; for Plant response rating, Field Poppy: scale 0 to 100 (0 no effect, 100 complete control)
From the text: (§2) Seeds of plant species selected from bluegrass (annual bluegrass, Poa annua), blackgrass (Alopecurus myosuroides), canarygrass (littleseed canarygrass, Phalaris minor), chickweed (common chickweed, Stellaria media), galium (catchweed bedstraw, Galium aparine), bromegrass, downy (downy bromegrass, Bromus tectorum), field poppy (Papaver rhoeas), field violet (Viola arvensis), foxtail, green (green foxtail, Setaria viridis), deadnettle (henbit deadnettle, Lamium amplexicaule), ryegrass, Italian (Italian ryegrass, Lolium multiflorum), kochia (Kochia scoparia), lambsquarters (Chenopodium album), oilseed rape (Brassica napus), pigweed (Amaranthus retroflexus), chamomile (scentless chamomile, Matricaria inodora), Russian thistle (Salsola kali), speedwell (bird's-eye speedwell, Veronica persica), barley, spring (spring barley, Hordeum vulgare), wheat, spring (spring wheat, Triticum aestivum), buckwheat, wild (wild buckwheat, Polygonum convolvulus), mustard, wild (wild mustard, Sinapis arvensis), oat, wild (wild oat, Avena fatua), radish, wild (wild radish, Raphanus raphanistrum), […]), barley, winter (winter barley, Hordeum vulgare), and wheat, winter (winter wheat, Triticum aestivum) were planted into a silt loam soil and treated preemergence with test chemicals formulated in a non-phytotoxic solvent mixture which included a surfactant. At the same time, these species were planted in pots containing Redi-Earth® planting medium (Scotts Company, 14111 Scottslawn Road, Marysville, Ohio 43041) comprising spaghnum peat moss, vermiculite, wetting agent and starter nutrients and treated with postemergence applications of the test chemicals formulated in the same manner. Plants ranged in height from 2 to 18 cm (1- to 4-leaf stage). Treated plants and controls were maintained in a controlled growth environment for 7 to 21 days after which time all species were compared to controls and visually evaluated. Plant response ratings, summarized in Table D, are based on a scale of 0 to 100 where 0 is no effect and 100 is complete control. A dash (-) response means no test result.

pigweed = assay: Test D pre-/postemergence herbicide test; format: in vivo, Amaranthus retroflexus; conditions: for Plant response rating: Postemergence, Pigweed, scale 0 to 100; for Plant response rating, Pigweed: Preemergence, scale 0 to 100 (0 no effect, 100 complete control)
From the text: as §2

SMILES | Plant response rating (field poppy; Postemergence, 16 g ai/ha) | Plant response rating (field poppy; Postemergence, 31 g ai/ha) | Plant response rating (field poppy; Postemergence, 62 g ai/ha) | Plant response rating (field poppy; Postemergence, 125 g ai/ha) | Plant response rating, Field Poppy (field poppy; Preemergence, 62 g ai/ha) | Plant response rating, Field Poppy (field poppy; Preemergence, 16 g ai/ha) | Plant response rating, Field Poppy (field poppy; Preemergence, 31 g ai/ha) | Plant response rating (pigweed; 16 g ai/ha) | Plant response rating (pigweed; 31 g ai/ha) | Plant response rating (pigweed; 62 g ai/ha) | Plant response rating (pigweed; 125 g ai/ha) | Plant response rating, Pigweed (pigweed; 62 g ai/ha) | Plant response rating, Pigweed (pigweed; 125 g ai/ha) | Plant response rating, Pigweed (pigweed; 16 g ai/ha) | Plant response rating, Pigweed (pigweed; 31 g ai/ha) | Plant response rating (field poppy; Postemergence, 250 g ai/ha) | Plant response rating (field poppy; Preemergence, 250 g ai/ha) | Plant response rating (pigweed; 250 g ai/ha) | Plant response rating, Pigweed (pigweed; 250 g ai/ha) | other results
O=C1NCC(c2ccc(OC(F)F)cc2)C1C(=O)Nc1cccc(F)c1F (racemic) [Compound 350] | – | – | – | – | – | – | – | – | – | – | – | – | – | – | – | – | – | – | – | Plant response rating, Kochia (kochia; 31 g ai/ha): 0; Plant response rating, Kochia (kochia; 62 g ai/ha): 40; Plant response rating, Kochia (kochia; 125 g ai/ha): 75; Plant response rating, Kochia (kochia; 250 g ai/ha): 90; Plant response rating, Nightshade (nightshade; 31 g ai/ha): 0; Plant response rating, Nightshade (nightshade; 62 g ai/ha): 0; Plant response rating, Nightshade (nightshade; 125 g ai/ha): 50; Plant response rating, Nightshade (nightshade; 250 g ai/ha): 80; Plant response rating, Crabgrass, Large (crabgrass, large; 31 g ai/ha): 50; Plant response rating, Crabgrass, Large (crabgrass, large; 62 g ai/ha): 70; Plant response rating, Crabgrass, Large (crabgrass, large; 125 g ai/ha): 98; Plant response rating, Crabgrass, Large (crabgrass, large; 250 g ai/ha): 98; Plant response rating, Surinam Grass (surinam grass; 31 g ai/ha): 0; Plant response rating, Surinam Grass (surinam grass; 62 g ai/ha): 0; Plant response rating, Surinam Grass (surinam grass; 125 g ai/ha): 50; Plant response rating, Surinam Grass (surinam grass; 250 g ai/ha): 65; Plant response rating, Soybean (soybean; 31 g ai/ha): 0; Plant response rating, Soybean (soybean; 62 g ai/ha): 0; Plant response rating, Soybean (soybean; 125 g ai/ha): 0; Plant response rating, Soybean (soybean; 250 g ai/ha): 0
O=C1NCC(c2cc(F)c(F)cc2F)C1C(=O)Nc1cccc(F)c1F (centres unmarked) [Compound 50] | 0 | 0 | 0 | 0 | 0 | 0 | 50 | 5 | 0 | 0 | 10 | 25 | 5 | 10 | 10 | – | – | – | – | Plant response rating (field poppy; Preemergence, 125 g ai/ha): 65
O=C1NCC(c2ccc(Cl)c(F)c2)C1C(=O)Nc1cccc(F)c1F (centres unmarked) [Compound 52] | 0 | 0 | 0 | 0 | 50 | 30 | 50 | 0 | 0 | 0 | 30 | 10 | 10 | 0 | 10 | 0 | 80 | 40 | 15 | –
O=C1NCC(c2ccc(C(F)(F)F)cc2)C1C(=O)Nc1ccccc1F (centres unmarked) [Compound 231] | – | 0 | 20 | 0 | 80 | – | 80 | – | 20 | 35 | 35 | 50 | 60 | – | 50 | 50 | 95 | 45 | 80 | Plant response rating, Field Poppy (field poppy; Preemergence, 125 g ai/ha): 100
